Reference: patent publication US20240317762A1, “PHTHALAZINONE-BASED PARP-1 INHIBITORS” (Oregon Health & Science University, priority 2021, published 2024)

What was measured:
[1] = system: pan-nuclear γH2AX in HEK 293T cells; assay: γH2AX immunofluorescence; format: cell-based, human
Procedure: HEK 293T or HEK 293 PARP-1 KO cells were seeded onto poly-d-lysine treated glass coverslips and treated with indicated concentrations of inhibitors for 18 hours. Cells were then washed with 1×PBS and fixed using 4% Sucrose/4% Paraformaldehyde in PBS for 20 minutes. After three washes in 1×PBS, cells were permeabilized in 0.3% Triton X-100 in PBS for 5 minutes followed by an additional three washes in 1×PBS. Coverslips were blocked in 3% BSA/0.1% Triton X-100 in PBS for 1 hour and then placed in primary anti-rabbit phosphoH2Ax antibody (1:200, Cell Signaling) overnight at 4° C. The next morning, cells were washed three times in 1×PBS and treated with blocking solution, 3% BSA/0.1% Triton X-100 in PBS, for 30 minutes before being placed in secondary anti-rabbit Alexa Fluor 647 (1:1000 Jackson Immuno) for 1 hour at RT. After three subsequent 1×PBS washes, coverslips were mounted using ProLong Gold antifade reagent with DAPI (Invitrogen). All immunofluorescence images were taken on a Zeiss ApoTome2 on Axiolmager and analyzed using Zeiss software. Mean intensity of the Alexa Fluor 647 signal was measured after imposing DAPI masks over the nucleus of each cell. All cells within a 20× image, was analyzed (˜3000 cells/condition).
Cell are stained for DAPI and γH2AX. Scale bar indicates 50 μm. FIG. 2B) Quantification of panel a. […] Error bars represent SEM. […] Error bars represent SEM. […] Error bars represent SEM.

[2] = system: caspase-3/7 activity in HEK 293 cells; assay: cell apoptosis assay (Caspase-Glo 3/7); format: cell-based, human; details: 1 μM, 72 hours
Procedure: HEK 293 or HEK 293 PARP-1 KO cells were seeded in a 96 well plate at 1000-2000 cells per well, a media only “blank” was also included. Following an overnight incubation, cells were treated with 1 μM of indicated inhibitors. “Blank” wells were treated with DMSO. Following a 72 hour inhibitor treatment, the Caspase-Glo 3/7 Assay was completed following the manufacturer instructions (Promega, #G8091). Luminescence was read on a SpectraMax i3 plate reader (Molecular Devices).
Error bars represent SEM. […] Error bars represent SEM. […] Error bars represent SEM.

R878A PARP-1 = R878A PARP-1 (Homo sapiens, UniProt P09874, R878A); assay: fluorescence polarization DNA competition and affinity assays, R878A mutant; format: binding; details: with AZ0108
Chain of R878A PARP-1 (P09874 whole entry R878A, the tested form may be a part): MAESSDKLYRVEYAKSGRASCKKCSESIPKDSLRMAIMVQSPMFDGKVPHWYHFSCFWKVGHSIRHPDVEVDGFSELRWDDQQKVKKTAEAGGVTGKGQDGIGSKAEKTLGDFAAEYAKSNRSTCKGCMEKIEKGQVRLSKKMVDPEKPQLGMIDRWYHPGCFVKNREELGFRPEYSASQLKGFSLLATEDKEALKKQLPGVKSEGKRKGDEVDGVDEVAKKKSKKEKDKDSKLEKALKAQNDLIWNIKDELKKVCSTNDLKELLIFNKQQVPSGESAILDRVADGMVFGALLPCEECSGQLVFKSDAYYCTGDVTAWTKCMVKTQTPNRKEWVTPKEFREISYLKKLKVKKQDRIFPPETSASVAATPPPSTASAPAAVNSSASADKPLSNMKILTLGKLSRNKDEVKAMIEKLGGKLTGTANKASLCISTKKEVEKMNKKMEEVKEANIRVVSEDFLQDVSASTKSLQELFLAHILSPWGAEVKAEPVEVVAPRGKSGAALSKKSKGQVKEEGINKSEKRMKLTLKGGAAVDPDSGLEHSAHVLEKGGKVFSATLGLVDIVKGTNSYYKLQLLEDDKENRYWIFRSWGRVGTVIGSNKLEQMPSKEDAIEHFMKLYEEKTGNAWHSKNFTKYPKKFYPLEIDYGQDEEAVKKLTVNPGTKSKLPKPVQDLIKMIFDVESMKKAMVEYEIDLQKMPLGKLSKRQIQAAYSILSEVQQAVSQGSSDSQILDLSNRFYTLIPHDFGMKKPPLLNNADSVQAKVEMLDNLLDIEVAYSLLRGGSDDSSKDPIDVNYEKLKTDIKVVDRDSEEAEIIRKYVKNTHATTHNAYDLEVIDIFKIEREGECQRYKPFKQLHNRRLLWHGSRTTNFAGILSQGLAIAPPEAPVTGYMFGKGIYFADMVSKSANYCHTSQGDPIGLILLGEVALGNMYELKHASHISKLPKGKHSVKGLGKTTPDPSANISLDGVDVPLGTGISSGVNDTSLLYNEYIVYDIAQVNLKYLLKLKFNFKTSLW
Procedure: FIG. 4B) Helical domain (pink cartoon) movement observed during the simulation, the red arrows indicate length and direction of movement. FIG. 4C) The residue-residue distance observed between the Ca atoms R878-D770 and Y889-V758, the increased distance sampling corresponds to the helical domain movement. FIG. 4D) PARP-1 WT, D770A, or R878A (40 nM) was incubated with a dumbbell DNA probe carrying an internal FAM group and a central nick at 20 nM with or without compound (25 μM) for 30 minutes. An unlabeled competitor was added and the decrease in fluorescence polarization was measured across time. FIG. 4E) The Kd of PARP-1 WT, D770A, or R878A for a DNA dumbbell probe containing a central nick (5 nM) was measured in a fluorescence polarization assay with and without inhibitor (5 μM). Error bars represent Standard Error of the Mean (SEM) (n=3).

**Q.** With “(S)-4-(difluoro(3-(6-methyl-3-(trifluoromethyl)-5,6,7,8-tetrahydro-[1,2,4]triazolo[4,3-a]pyrazine-7-carbonyl)phenyl)methyl)phthalazin-1(2H)-one [AZ0108]” as the substance, how does the “pan-nuclear γH2AX induction” value ([1]; HEK 293T cells, 18 hours) read?
**A.** Its value is “dose-dependent increase”.

**Q.** And the “dependence of pan-nuclear γH2AX signal on PARP-1” value ([1]; HEK293 control vs PARP-1 KO cells, 3 μM AZ0108)?
**A.** The value was “dependent on the presence of PARP-1”.

**Q.** And the “reduction of caspase-3/7 activity” value [2]?
**A.** The value was 75%.

**Q.** What about the “DNA binding to R878A PARP-1” value (R878A PARP-1) of the same substance?
**A.** The value was “similarly unaffected”.
